# From PubChem BioAssay AID248 (DTP/NCI, 2004)
# Where “and” joins values, the source holds several entries; their conditions need not be identical. Equal entries are not always repeated. Toxic doses and inconclusive results are not listed.
# System: L1210 leukemia ip in BDF1 mice, survival T/C
# Assay: NCI In Vivo Anticancer Drug Screen. Data for tumor model L1210 Leukemia (intraperitoneal) in B6D2F1 (BDF1) mice
# Details: endpoint: mean survival time, higher = longer survival
# Method in brief: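 Transplanted-tumor mice were given test agent; controls received vehicle only. Survival readings from the two groups were divided (treated over control).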
smiles,measurement,setting,value
O=NN(CCCl)C(=O)N[C@H]1CCCC[C@@H]1Cl,T/C,"dose: 3.0 mg/kg/injection, schedule: Q## X024 (ip), vehicle: other",103 % of control
same,T/C,"dose: 3.0 mg/kg/injection, schedule: Q## X024 (oral), vehicle: other",114 % of control
same,T/C,"dose: 3.35 mg/kg/injection, schedule: Q01DX015 (ip), vehicle: other",116 % of control
same,T/C,"dose: 5.0 mg/kg/injection, schedule: Q01DX015 (ip), vehicle: other",173 % of control
same,T/C,"dose: 6.0 mg/kg/injection, schedule: Q01DX001 (oral), vehicle: other",116 % of control
same,T/C,"dose: 6.0 mg/kg/injection, schedule: Q01DX001 (sc), vehicle: other",123 % of control
same,T/C,"dose: 6.0 mg/kg/injection, schedule: Q## X008 (oral), vehicle: other",122 % of control
same,T/C,"dose: 6.7 mg/kg/injection, schedule: Q02DX008 (ip), vehicle: other",162 % of control and 208 % of control
same,T/C,"dose: 7.6 mg/kg/injection, schedule: Q01DX015 (ip), vehicle: other",277 % of control
same,T/C,"dose: 7.62 mg/kg/injection, schedule: Q01DX015 (ip), vehicle: other",485 % of control
same,T/C,"dose: 8.0 mg/kg/injection, schedule: Q01DX001 (ip), vehicle: carboxymethylcellulose (CMC)",119 % of control
same,T/C,"dose: 10.2 mg/kg/injection, schedule: Q02DX008 (ip), vehicle: other",242 % of control and 558 % of control
same,T/C,"dose: 11.4 mg/kg/injection, schedule: Q01DX015 (ip), vehicle: other",348 % of control and 478 % of control
same,T/C,"dose: 12.0 mg/kg/injection, schedule: Q01DX001 (ip), vehicle: other",203 % of control
same,T/C,"dose: 12.0 mg/kg/injection, schedule: Q## X008 (oral), vehicle: other",117 % of control
same,T/C,"dose: 13.4 mg/kg/injection, schedule: Q## X004 (ip), vehicle: other",291 % of control and 500 % of control
same,T/C,"dose: 13.75 mg/kg/injection, schedule: Q01DX001 (oral), vehicle: other",150 % of control and 164 % of control
same,T/C,"dose: 13.75 mg/kg/injection, schedule: Q## X001 (oral), vehicle: other",200 % of control
same,T/C,"dose: 15.0 mg/kg/injection, schedule: Q01DX001 (ip), vehicle: other",187 % of control
same,T/C,"dose: 15.0 mg/kg/injection, schedule: Q01DX005 (ip), vehicle: other",476 % of control
same,T/C,"dose: 15.0 mg/kg/injection, schedule: Q01DX009 (ip), vehicle: other",408 % of control
same,T/C,"dose: 15.0 mg/kg/injection, schedule: Q01DX009 (sc), vehicle: other",365 % of control
same,T/C,"dose: 15.0 mg/kg/injection, schedule: Q## X003 (ip), vehicle: other",476 % of control
same,T/C,"dose: 15.24 mg/kg/injection, schedule: Q02DX008 (ip), vehicle: other",501 % of control
same,T/C,"dose: 15.25 mg/kg/injection, schedule: Q01DX001 (ip), vehicle: other",323 % of control
same,T/C,"dose: 15.25 mg/kg/injection, schedule: Q## X001 (ip), vehicle: other",156 % of control
same,T/C,"dose: 16.0 mg/kg/injection, schedule: Q## X032 (ip), vehicle: other",209 % of control
same,T/C,"dose: 17.0 mg/kg/injection, schedule: Q01DX015 (ip), vehicle: other",330 % of control and 527 % of control
same,T/C,"dose: 18.0 mg/kg/injection, schedule: Q01DX001 (ip), vehicle: carboxymethylcellulose (CMC)",183 % of control
same,T/C,"dose: 19.0 mg/kg/injection, schedule: Q01DX001 (ip), vehicle: carboxymethylcellulose (CMC)",160 % of control
same,T/C,"dose: 20.4 mg/kg/injection, schedule: Q## X004 (ip), vehicle: other",590 % of control
same,T/C,"dose: 22.8 mg/kg/injection, schedule: Q02DX008 (ip), vehicle: other",433 % of control and 545 % of control
same,T/C,"dose: 24.0 mg/kg/injection, schedule: Q01DX001 (ip), vehicle: other",476 % of control
same,T/C,"dose: 24.0 mg/kg/injection, schedule: Q01DX001 (oral), vehicle: other",275 % of control
same,T/C,"dose: 24.0 mg/kg/injection, schedule: Q01DX001 (sc), vehicle: other",267 % of control
same,T/C,"dose: 24.0 mg/kg/injection, schedule: Q## X008 (oral), vehicle: other",165 % of control
same,T/C,"dose: 24.0 mg/kg/injection, schedule: Q## X024 (oral), vehicle: other",270 % of control
same,T/C,"dose: 24.0 mg/kg/injection, schedule: Q## X032 (ip), vehicle: other",470 % of control
same,T/C,"dose: 26.0 mg/kg/injection, schedule: Q01DX001 (ip), vehicle: carboxymethylcellulose (CMC)",209 % of control and 243 % of control
same,T/C,"dose: 27.0 mg/kg/injection, schedule: Q01DX001 (ip), vehicle: other",409 % of control
